{
  "source": "PubChem BioAssay AID1963838",
  "about": "(Molecular Pharmacology Branch, DTP, NCI, 2024);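 further: spheroids exposed to compounds for seven days before readout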",
  "test_system": "855422-203-R-J1-PDC complex spheroid viability",
  "test": "Anticancer human tumor 855422-203-R-J1-PDC patient-derived bladder carcinoma cell line growth inhibition [POLQ]",
  "conditions": "for IC50: curve of first compound; for viability, T/C: stronger effect = lower value",
  "outline": "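PDC + HUVEC + MSC complex spheroids; POLQ inhibitors ± partner drugs; top conc. at/near clinical Cmax, else 10 microM (SN-38 1 microM), half-log dilutions; 37 degrees C, 5% CO2.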",
  "data": [
    {"smiles": "CC1COCCN1c1cc(C2(S(C)(=N)=O)CC2)nc(-c2ccnc3[nH]ccc23)n1", "note": "(configuration not stated) + COC1C(OC(N)=O)C(O)C(Oc2ccc3c(O)c(NC(=O)c4ccc(O)c(CC=C(C)C)c4)c(=O)oc3c2C)OC1(C)C", "values": [
      {"measurement": "IC50", "setting": "second compound 0.0316 µM", "result": 2450, "unit": "nM"},
      {"measurement": "IC50", "setting": "second compound 0.1 µM", "result": 2390, "unit": "nM"},
      {"measurement": "IC50", "setting": "second compound 0.316 µM", "result": 2650, "unit": "nM"},
      {"measurement": "IC50", "setting": "second compound 1 µM", "result": 2710, "unit": "nM"},
      {"measurement": "IC50", "setting": "second compound 3.16 µM", "result": 2590, "unit": "nM"},
      {"measurement": "IC50", "setting": "second compound 10 µM", "result": 2300, "unit": "nM"},
      {"measurement": "viability, T/C", "setting": "second compound 0.0316 µM, first compound 0.0316 µM", "result": 110, "unit": "%"},
      {"measurement": "viability, T/C", "setting": "second compound 0.0316 µM, first compound 0.1 µM", "result": 118, "unit": "%"},
      {"measurement": "viability, T/C", "setting": "second compound 0.0316 µM, first compound 0.316 µM", "result": 122, "unit": "%"},
      {"measurement": "viability, T/C", "setting": "second compound 0.0316 µM, first compound 1 µM", "result": 97.5, "unit": "%"},
      {"measurement": "viability, T/C", "setting": "second compound 0.0316 µM, first compound 3.16 µM", "result": 36.7, "unit": "%"},
      {"measurement": "viability, T/C", "setting": "second compound 0.0316 µM, first compound 10 µM", "result": 12, "unit": "%"},
      {"measurement": "viability, T/C", "setting": "second compound 0.1 µM, first compound 0.0316 µM", "result": 100, "unit": "%"},
      {"measurement": "viability, T/C", "setting": "second compound 0.1 µM, first compound 0.1 µM", "result": 99.2, "unit": "%"},
      {"measurement": "viability, T/C", "setting": "second compound 0.1 µM, first compound 0.316 µM", "result": 118, "unit": "%"},
      {"measurement": "viability, T/C", "setting": "second compound 0.1 µM, first compound 1 µM", "result": 111, "unit": "%"},
      {"measurement": "viability, T/C", "setting": "second compound 0.1 µM, first compound 3.16 µM", "result": 31.6, "unit": "%"},
      {"measurement": "viability, T/C", "setting": "second compound 0.1 µM, first compound 10 µM", "result": 12.8, "unit": "%"},
      {"measurement": "viability, T/C", "setting": "second compound 0.316 µM, first compound 0.0316 µM", "result": 110, "unit": "%"},
      {"measurement": "viability, T/C", "setting": "second compound 0.316 µM, first compound 0.1 µM", "result": 103, "unit": "%"},
      {"measurement": "viability, T/C", "setting": "second compound 0.316 µM, first compound 0.316 µM", "result": 117, "unit": "%"},
      {"measurement": "viability, T/C", "setting": "second compound 0.316 µM, first compound 1 µM", "result": 111, "unit": "%"},
      {"measurement": "viability, T/C", "setting": "second compound 0.316 µM, first compound 3.16 µM", "result": 39, "unit": "%"},
      {"measurement": "viability, T/C", "setting": "second compound 0.316 µM, first compound 10 µM", "result": 11.1, "unit": "%"},
      {"measurement": "viability, T/C", "setting": "second compound 1 µM, first compound 0.0316 µM", "result": 113, "unit": "%"},
      {"measurement": "viability, T/C", "setting": "second compound 1 µM, first compound 0.1 µM", "result": 112, "unit": "%"},
      {"measurement": "viability, T/C", "setting": "second compound 1 µM, first compound 0.316 µM", "result": 126, "unit": "%"},
      {"measurement": "viability, T/C", "setting": "second compound 1 µM, first compound 1 µM", "result": 118, "unit": "%"},
      {"measurement": "viability, T/C", "setting": "second compound 1 µM, first compound 3.16 µM", "result": 39.5, "unit": "%"},
      {"measurement": "viability, T/C", "setting": "second compound 1 µM, first compound 10 µM", "result": 10.5, "unit": "%"},
      {"measurement": "viability, T/C", "setting": "second compound 3.16 µM, first compound 0.0316 µM", "result": 125, "unit": "%"},
      {"measurement": "viability, T/C", "setting": "second compound 3.16 µM, first compound 0.1 µM", "result": 106, "unit": "%"},
      {"measurement": "viability, T/C", "setting": "second compound 3.16 µM, first compound 0.316 µM", "result": 116, "unit": "%"},
      {"measurement": "viability, T/C", "setting": "second compound 3.16 µM, first compound 1 µM", "result": 112, "unit": "%"},
      {"measurement": "viability, T/C", "setting": "second compound 3.16 µM, first compound 3.16 µM", "result": 37.1, "unit": "%"},
      {"measurement": "viability, T/C", "setting": "second compound 3.16 µM, first compound 10 µM", "result": 12.3, "unit": "%"},
      {"measurement": "viability, T/C", "setting": "second compound 10 µM, first compound 0.0316 µM", "result": 114, "unit": "%"},
      {"measurement": "viability, T/C", "setting": "second compound 10 µM, first compound 0.1 µM", "result": 103, "unit": "%"},
      {"measurement": "viability, T/C", "setting": "second compound 10 µM, first compound 0.316 µM", "result": 111, "unit": "%"},
      {"measurement": "viability, T/C", "setting": "second compound 10 µM, first compound 1 µM", "result": 99.9, "unit": "%"},
      {"measurement": "viability, T/C", "setting": "second compound 10 µM, first compound 3.16 µM", "result": 30.8, "unit": "%"},
      {"measurement": "viability, T/C", "setting": "second compound 10 µM, first compound 10 µM", "result": 10.7, "unit": "%"}
    ]}
  ]
}
